Source: patent US6566547B1, “Fungicides” (Zeneca Limited, priority 1984, dated 2003)
Counter-ions that a name gives are not always drawn.

melting point: 37 to 38 °C
SMILES: CO/C=C(/C(=O)OC)c1ccccc1 (as salt: sulphate)
